ChEMBL document CHEMBL5038644 (J Med Chem, 2022)
Calls of active or inactive are those of the source. The rule behind the calls is not given here.

Assays:
Apelin receptor = biological target: T1, Apelin receptor (Homo sapiens, UniProt P35414); assay: Displacement of [125I]-[Nle75,Tyr77][Pyr1]-Ape13 from YFP-tagged human APJ expressed in HEK293 cell membranes assessed as inhibition constant incubated for 1 hr by scintillation counting method
T1 sequence (P35414 whole entry): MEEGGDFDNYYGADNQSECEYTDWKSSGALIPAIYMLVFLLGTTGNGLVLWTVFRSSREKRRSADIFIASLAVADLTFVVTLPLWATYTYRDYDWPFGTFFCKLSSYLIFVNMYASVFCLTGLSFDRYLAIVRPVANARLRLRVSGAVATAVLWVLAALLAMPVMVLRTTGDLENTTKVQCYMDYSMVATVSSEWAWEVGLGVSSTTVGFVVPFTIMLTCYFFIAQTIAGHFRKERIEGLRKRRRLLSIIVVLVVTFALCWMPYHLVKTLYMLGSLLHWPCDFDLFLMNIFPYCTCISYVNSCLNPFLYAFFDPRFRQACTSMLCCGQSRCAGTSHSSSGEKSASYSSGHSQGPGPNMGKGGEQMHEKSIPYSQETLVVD

[1] = Stability in Sprague-Dawley rat plasma assessed as half life measured upto 24 hrs by UPLC-MS analysis; format: ADME, cell-free
[2] = biological target: T2, Apelin receptor (Homo sapiens) (UniProt P35414); assay: Agonist activity at human APJ expressed in HEK293 cells assessed as maximal efficacy for dissociation of G alphai1 from the G beta gamma subunit by BRET-based G protein dissociation assay relative to control; format: functional, cell-based; conditions: filed as agonist
T2 sequence (whole entry): T1 sequence (P35414 whole entry)

[3] = biological target: T2, Apelin receptor (Homo sapiens); assay: Agonist activity at human APJ expressed in HEK293 cell membrane assessed as maximal efficacy for recruitment of PDZ-RhoGEF Galphai1 to cell membrane by BRET-based G protein dissociation assay relative to control; format: functional
[4] = biological target: T2, Apelin receptor (Homo sapiens); assay: Agonist activity at human APJ expressed in HEK293 cell membrane assessed as maximal efficacy for recruitment of beta-arrestin2 to receptor by BRET-based beta-arrestin2 assay relative to control; format: functional; conditions: filed as agonist
Rattus norvegicus [5] = assay: Hypotensive effect in Sprague-Dawley rat assessed as decrease in blood pressure at 19.6 to 65 nmol/kg, iv relative to control; format: functional; conditions: dose 19.6-65 nmol/kg
Rattus norvegicus [6] = assay: Cardioprotective activity in Sprague-Dawley rat assessed as effect on left ventricular fractional shortening at 2 micromol/kg, sc after 3 hrs by echocardiography relative to control; format: functional; conditions: dose 2 µmol/kg
Rattus norvegicus [7] = assay: Cardioprotective activity in Sprague-Dawley rat assessed as effect on left ventricular fractional shortening at 0.2 micromol/kg, sc after 3 hrs by echocardiography; format: functional, organism-based; conditions: dose 0.2 µmol/kg
Rattus norvegicus [8] = assay: Cardioprotective activity in Sprague-Dawley rat assessed as effect on cardiac output in sprague-dawley rat at 2 micromol/kg, sc after 3 hrs by echocardiography relative to control; format: functional; conditions: dose 2 µmol/kg
[9] = Stability in Sprague-Dawley rat plasma at 3 mg/kg, iv upto 2 hrs by LC/MS-MS analysis; format: ADME, organism-based; conditions: in vivo
[10] = AUC in Sprague-Dawley rat plasma at 3 mg/kg, iv by LC/MS-MS analysis; format: ADME, organism-based; parameters: dose 3 mg/kg; conditions: in vivo

Row | Emax [2] | Emax ([3]; filed as agonist) | Emax [4] | SMILES | Activity (Rattus norvegicus [5]) | also measured
1 |  |  |  | C=CC[C@H](NC(=O)[C@H](CO)NC(=O)[C@H](CC(C)C)NC(=O)[C@H](CCCNC(=N)N)NC(=O)[C@@H](N)CC=C)C(=O)N[C@@H](CCCCN)C(=O)NCC(=O)N1CCC[C@H]1C(=O)N[C@@H](CCCC)C(=O)N1CCC[C@H]1C(=O)N[C@@H](Cc1ccccc1)C(=O)O |  | Ki (Apelin receptor): 170 nM; half-life [1]: 6 min
2 | 104% | 48% | 78% | CC(C)C[C@@H]1NC(=O)[C@H](CCCNC(=N)N)NC(=O)[C@@H](N)C/C=C\C[C@@H](C(=O)N[C@@H](CCCCN)C(=O)NCC(=O)N2CCC[C@H]2C(=O)N[C@H](Cc2ccc(OCc3ccccc3)cc2)C(=O)O)NC(=O)[C@H](CO)NC1=O |  | 
3 | 100% | 98% | 98% | CCCC[C@H](NC(=O)[C@@H]1CCCN1C(=O)CNC(=O)[C@H](CCCCN)NC(=O)[C@@H]1C/C=C\C[C@H](N)C(=O)N[C@@H](CCCNC(=N)N)C(=O)N[C@@H](CC(C)C)C(=O)N[C@@H](CO)C(=O)N1)C(=O)N1CCC[C@H]1C(=O)N[C@@H](Cc1ccccc1)C(=O)O | -27 mmHg | 
4 | 106% | 93% | 82% | CCCC[C@H](NC(=O)[C@@H]1CCCN1C(=O)CNC(=O)[C@H](CCCCN)NC(=O)[C@@H]1CCN(S(=O)(=O)c2ccccc2[N+](=O)[O-])C/C=C/C[C@H](N)C(=O)N[C@@H](CCCNC(=N)N)C(=O)N[C@@H](CC(C)C)C(=O)N[C@@H](CO)C(=O)N1)C(=O)N1CCC[C@H]1C(=O)N[C@@H](Cc1ccccc1)C(=O)O |  | 
5 | 103% | 105% | 92% | CCCC[C@H](NC(=O)[C@@H]1CCCN1C(=O)CNC(=O)[C@H](CCCCN)NC(=O)[C@@H]1C/C=C\C[C@H](NC(=N)N)C(=O)N[C@@H](CCCNC(=N)N)C(=O)N[C@@H](CC(C)C)C(=O)N[C@@H](CO)C(=O)N1)C(=O)N1CCC[C@H]1C(=O)N[C@@H](Cc1ccccc1)C(=O)O |  | 
6 | 99% | 98% | 115% | CCCC[C@H](NC(=O)[C@@H]1CCCN1C(=O)CNC(=O)[C@H](CCCCN)NC(=O)[C@@H]1Cc2cncn2C/C=C/C[C@H](NC(=O)[C@H](CCCNC(=N)N)NC(=O)[C@@H]2CCC(=O)N2)C(=O)N[C@@H](CCCNC(=N)N)C(=O)N[C@@H](CC(C)C)C(=O)N[C@@H](CO)C(=O)N1)C(=O)N1CCC[C@H]1C(=O)N[C@@H](Cc1ccccc1)C(=O)O | -36 mmHg | 
7 | 103% |  | 70% | CC(C)C[C@@H]1NC(=O)[C@H](CCCNC(=N)N)NC(=O)[C@@H](N)C/C=C\C[C@@H](C(=O)N[C@@H](CCCCN)C(=O)NCC(=O)N2CCC[C@H]2C(=O)N[C@H](Cc2cccc3ccccc23)C(=O)O)NC(=O)[C@H](CO)NC1=O | -24 mmHg | Activity (Rattus norvegicus [6]): 22%; Activity (Rattus norvegicus [7]): Active; Activity (Rattus norvegicus [8]): 22%; Emax [3]: 3%; Stability [9]: Stable; AUC [10]: 1.33 mg·min/mL
8 | 100% | 45% | 54% | CC(C)C[C@@H]1NC(=O)[C@H](CCCNC(=N)N)NC(=O)[C@@H](N)C/C=C\C[C@@H](C(=O)N[C@@H](CCCCN)C(=O)NCC(=O)N2CCC[C@H]2C(=O)N[C@H](Cc2ccc(O)cc2)C(=O)O)NC(=O)[C@H](CO)NC1=O |  | 
9 | 102% | 97% | 90% | CCCC[C@H](NC(=O)[C@@H]1CCCN1C(=O)CNC(=O)[C@H](CCCCN)NC(=O)[C@@H]1CCN(C)C/C=C/C[C@H](NC(=O)[C@H](CCCNC(=N)N)NC(=O)[C@@H]2CCC(=O)N2)C(=O)N[C@@H](CCCNC(=N)N)C(=O)N[C@@H](CC(C)C)C(=O)N[C@@H](CO)C(=O)N1)C(=O)N1CCC[C@H]1C(=O)N[C@@H](Cc1ccccc1)C(=O)O |  | 

Row | SMILES | Emax [2] | Emax ([3]; filed as agonist) | Emax [4] | Activity (Rattus norvegicus [5]) | also measured
10 | CCCC[C@H](NC(=O)[C@@H]1CCCN1C(=O)CNC(=O)[C@H](CCCCN)NC(=O)[C@@H]1CCN(S(=O)(=O)c2ccccc2[N+](=O)[O-])C/C=C/C[C@H](NC(=O)[C@H](CCCNC(=N)N)NC(=O)[C@@H]2CCC(=O)N2)C(=O)N[C@@H](CCCNC(=N)N)C(=O)N[C@@H](CC(C)C)C(=O)N[C@@H](CO)C(=O)N1)C(=O)N1CCC[C@H]1C(=O)N[C@@H](Cc1ccccc1)C(=O)O | 102% | 92% | 98% |  | 
